This note sets out measurements from publication PMC11204543, “Halenaquinol Blocks Staphylococcal Protein A Anchoring on Cell Wall Surface by Inhibiting Sortase A in Staphylococcus aureus” (Marine Drugs, 2024).

Assay [1] concerns SpA anchoring on cell wall surface of S. aureus Newman. The experiment in a line: SpA cell wall surface anchoring after trypsin removal, Western blot with anti-SpA antibody. In kind it is cell-based, Staphylococcus aureus. Particulars: trypsin-treated wild type, 1 h.
Procedure: The anchoring of SpA on the cell-wall surface in S. aureus was measured using Western blot analysis with monoclonal anti-SpA antibody (Figure 4). […] Then, trypsin-treated wild-type S. aureus cells were incubated in medium containing an SrtA inhibitor, halenaquinol, over a concentration range of 1-to-4 times the IC50 values.
The effect of the test compound on the in vivo inhibition of S. aureus SrtA was investigated by quantifying the abundance of SpA, catalyzed by the transpeptidation of SrtA on the bacterial surface [26]. […] For this study, S. aureus Newman (wild-type), a human clinical isolate, and its isogenic srtA-deletion mutant (ΔsrtA) were utilized [6, 37]. These strains were inoculated into 5 mL of TSB and incubated for 16 h at 37 °C with shaking. Cultures were then diluted 1:100 into TSB and were grown until the OD600 reached approximately 0.5. Cells from a 10 mL culture were harvested, rinsed with phosphate-buffered saline (PBS, Sigma–Aldrich), suspended in 5 mL of PBS containing 0.2 mg/mL trypsin (Sigma-Aldrich), incubated at 37 °C with shaking for 1 h, and washed with PBS. Subsequently, the cells were incubated in 5 mL of TSB containing 1 mM phenylmethylsulfonyl fluoride (PMSF), with the test compound at 37 °C with shaking for 1 h. Negative control groups were treated with DMSO solvent instead of the test compound. Then, aliquots (1 mL) were removed, and the cells were harvested and stored at −80 °C.
S. aureus cells, prepared as described above, were suspended in 1 mL of ice-cold PBS containing 1 mM PMSF. A 1% (w/v) solution of Sulfo-NHS-SS-Biotin was prepared, and it was added (100 μL) to 1 mL of cells, resulting in a final concentration of 1.5 mM Sulfo-NHS-SS-Biotin. The cells were then incubated with gentle shaking at 80 rpm for 2 h on ice and were collected using centrifugation (4000× g, 5 min, 4 °C). To halt the biotinylation reaction, cells were washed three times with 1 mL of ice-cold PBS containing 500 mM glycine. Next, the cells were suspended in 500 μL of lysis buffer containing 100 μg/mL lysostaphin (Sigma–Aldrich) and 2 mM PMSF. […]
In assay [2] the target is T1, Recombinant SrtA from S. aureus ATCC6538p (Staphylococcus aureus, UniProt Q2FV99).
T1 construct: no tag is named in the print; made in house; host or cells: Escherichia coli
T1 sequence (Q2FV99 whole entry): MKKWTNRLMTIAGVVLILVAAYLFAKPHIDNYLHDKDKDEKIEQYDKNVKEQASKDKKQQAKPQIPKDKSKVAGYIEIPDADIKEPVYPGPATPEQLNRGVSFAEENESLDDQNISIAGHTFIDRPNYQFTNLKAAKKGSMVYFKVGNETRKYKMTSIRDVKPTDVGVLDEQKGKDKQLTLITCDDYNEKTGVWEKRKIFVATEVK
Briefly: SrtA inhibition assay (fluorescence-based enzymatic assay, Abz-LPETG-Dnp substrate). The class given is biochemical. On the procedure: The SrtA inhibitory activity of compounds 1–6, along with that of a known SrtA inhibitor, quercetin [24], was evaluated in vitro using a fluorescence-based enzymatic assay. Recombinant SrtA from S. aureus ATCC6538p was expressed in Escherichia coli and was purified using nickel affinity chromatography. The cleavage of a synthetic peptide substrate by the SrtA enzyme emitted fluorescence, which was then measured. Table 1 presents the half maximal inhibitory concentration (IC50) values calculated from SrtA inhibition rates. […] As SrtA inhibitors act as anti-infective agents by disrupting bacterial pathogenesis without affecting microbial viability, minimum inhibitory concentration (MIC) values were examined to determine their effects on bacterial cell growth.
To determine the type of inhibition, kinetic studies were performed with halenaquinol at IC50 or twofold IC50 based on a Lineweaver and Burk plot (Figure 2A). Inhibitor constants were obtained by a Dixon plot (Figure 2B). […] Moreover, the binding of halenaquinol to SrtA was reversible because the enzyme activity was recovered by dialysis, excluding the possible existence of a covalent bond between inhibitor and enzyme.
The recombinant SrtA protein from S. aureus ATCC6538p was prepared using a previously described method. Each reaction comprised a 100 μL mixture containing a reaction buffer (50 mM Tris-HCl pH 7.5, 150 mM NaCl, and 5 mM CaCl2), 250 ng of synthetic fluorescent peptide substrate (Abz-LPETG-Dnp), 20 μg of SrtA, and varying concentrations of test samples. DMSO served as the negative control, while quercetin [24] was employed as the positive control. Test sample was dissolved in DMSO and then diluted with reaction buffer to yield a final DMSO concentration of 1%. The reaction mixture was aliquoted into a 96-well plate. Following the addition of SrtA, fluorescence intensity was determined using a microplate reader at excitation and emission wavelengths of 320 nm and 420 nm, respectively. The plate was then incubated for 1 h at 37 °C, and fluorescence intensity was measured. The effect of the inhibitor on SrtA was calculated as a percentage relative to the DMSO-treated control. The percentage of SrtA inhibition was calculated using the following equation: {1 − (Difference value of the test compound/Difference value of a negative control)} × 100. A 12-point, twofold serial dilution dose–response assay was performed independently in triplicate. The resultant dose–response concentration range was 128 to 0.1 μg/mL of inhibitor. Data were scaled to internal controls, and a four-parameter logistic model (SigmaPlot ver. 10.0) was used to fit the measured data and determine the IC50 values. In order to investigate the inhibition type and inhibition constant (Ki) values of halenaquinol, SrtA enzyme activity was monitored in various concentrations of substrate in the absence and presence of halenaquinol. All reactions were repeated three times and enzyme kinetics were evaluated using Lineweaver–Burk and Dixon plots.

Take `C[C@@]12CCC(=O)c3coc(c31)C(=O)c1cc3c(O)ccc(O)c3cc12` [Compound 2, halenaquinol]: the “anchoring of SpA on cell wall surface” value in assay [1] (1 × IC50 (13.94 μM)) is reported as “no significant difference from the wild type”. For the same molecule, the “reduction of SpA anchoring” value in assay [1] (2 × IC50 (27.88 μM)) is on record as “approximately 53%”; in assay [1] (4 × IC50 (55.76 μM)) it was around 85%. Further, in assay [2], the Ki was determined as 9.55 µM. Also, the type of inhibition result in assay [2] (Lineweaver-Burk plot at IC50 or twofold IC50) is “mixed inhibitor”. Moreover, in assay [2] (SrtA IC50, recombinant SrtA from S. aureus ATCC6538p, mean ± SD (n = 3)), the IC50 turned out to be 13.9 µM. In addition, the “reversibility of binding to SrtA” value in assay [2] (enzyme activity recovered by dialysis) is reported as “reversible”. For the same molecule, the “SrtA inhibitory potency relative to halenaquinol sulfate” value in assay [2] (ratio of IC50 values) is “approximately 9.2 times”.
